From US20200268827A1, “COMPOSITION FOR PREVENTION, IMPROVEMENT OR TREATMENT OF OSTEOARTHRITIS COMPRISING ALPINIA OXYPHYLLA EXTRACT AS EFFECTIVE COMPONENT” (KOREA INSTITUTE OF ORIENTAL MEDICINE, priority 2017, published 2020)

Columns and labels:
Assay type in all cases: in vivo, SD rat
[1] = system: MIA (monosodium iodoacetate)-induced osteoarthritis; experiment: Bodyweight loading of hind limb in animal model of MIA-induced osteoarthritis (incapacitance tester); details: compared to MIA group; oral once a day for 21 days, measured every 7 days; FIG. 1
Experimental: To determine the effect of an extract of Alpinia oxyphylla, which has been prepared in the above Example 1, on bodyweight loading in an animal model of MIA-induced osteoarthritis, MIA as an osteoarthritis-inducing material (diluted to 60 mg/ml with 0.9% physiological saline) was administered in an amount of 50 μl to an articular cavity of a right hind limb of 7-week old SD rat to induce osteoarthritis. After that, the animal was orally administered with an extract of Alpinia oxyphylla (150 or 300 mg/kg) once a day for 21 days, while the percentage of bodyweight loading was measured every 7 days. As a positive control group, indomethacin (1 mg/kg) was used.
The bodyweight loading on hind limb was measured by using a paw weight tester (Incapacitance tester, Linton instrument Co., UK, Ser No. 01/45/25). In a tester holder, the rat with induced osteoarthritis tends to stand on a normal paw which has not been administered with MIA due to the pain occurring in the other paw, and thus balance between the weights of two paws was not maintained so that the weight of paw administered with MIA is measured to be relatively lighter than the weight of normal paw. […] Then, by using the weight of paw which has been measured accordingly, percentage of bodyweight loading (%) was calculated based on the following Formula 1. […]

MMP-9 = experiment: mRNA expression of cartilage degeneration-inducing factor in joint with induced osteoarthritis by PCR; details: compared to MIA-induced increase, FIG. 2
Excerpt: (§1) From a joint with induced osteoarthritis, mRNA was extracted and the expression of an inflammatory factor (IL-1β, IL-6, TNF-α and COX-2) and a cartilage degeneration-inducing factor (MMP-9) was examined by PCR.

COX-2 = experiment: mRNA expression of inflammatory factor in joint with induced osteoarthritis by PCR; details: compared to MIA-induced increase, FIG. 2
Excerpt: as §1

IL-6 = experiment: as above; details: compared to MIA-induced increase, FIG. 2
Excerpt: as §1

TNF-α = experiment: as above; details: compared to MIA-induced increase, FIG. 2
Excerpt: as §1

IL-1β = experiment: as above; details: compared to MIA-induced increase, FIG. 2
Excerpt: as §1

Compound: COc1ccc2c(c1)c(CC(=O)O)c(C)n2C(=O)c1ccc(Cl)cc1 [indomethacin]
- percentage of bodyweight loading (%) of hind limb [1]: higher than the MIA-induced osteoarthritis group
- expression of MMP-9 (cartilage degeneration-inducing factor) (MMP-9): decreased in significant sense
- expression of COX-2 (inflammatory factor) (COX-2): decreased in significant sense
- expression of IL-6 (inflammatory factor) (IL-6): decreased in significant sense
- expression of TNF-α (inflammatory factor) (TNF-α): decreased in significant sense
- expression of IL-1β (inflammatory factor) (IL-1β): decreased in significant sense
